In US20050080062A1, “Breast cancer treatment regimen” (priority 2003, published 2005):

Test system: primary breast cancer (hormone receptor positive or unknown)
Type: in vivo, postmenopausal women
Procedure: The study was a phase III randomized double-blind placebo-controlled study of letrozole in postmenopausal women with primary breast cancer completing five years of adjuvant tamoxifen. Patients were allocated to receive either letrozole 2.5 mg or placebo once daily by mouth for five years. Stratification factors at randomization were tumor receptor status (positive, unknown), lymph node status at diagnosis (negative, positive or unknown) and prior adjuvant chemotherapy (yes, no). The primary objective was disease-free survival (DFS). Secondary endpoints included overall survival (OS)(all cause mortality), contralateral breast cancer occurrence, quality of life and long term clinical and laboratory safety with special attention paid to cardiovascular morbidity and mortality and bone fractures. Adverse events were assessed by the NCI Common Toxicity Criteria version 2.0. Quality of life was assessed using the SF-36 and Menopause-Specific Quality of Life questionnaires. Companion studies assessed lipid profiles and changes in bone density.
Premenopausal women who were <50 years at the start of treatment with tamoxifen but who became amenorrheic during the course of adjuvant chemotherapy or during their treatment with tamoxifen and who remained so throughout the ensuing years of tamoxifen treatment and women with LH/FSH levels within post-menopausal limits were also eligible. Other eligibility included: histologically confirmed invasive breast cancer; tumor receptor positive or unknown (ER and/or PgR positive defined as a tumour receptor content of ≧10 fmol/mg protein, or receptor positive by ERICA or PgRICA); tamoxifen discontinued <3 months prior to enrolment; ECOG performance status 0,1 or 2 and a life expectancy of >5 years. […] Ineligibility included: concurrent use of investigational drugs; prior or concurrent malignancy other than skin cancer or carcinoma in situ of the cervix.
Concomitant medications prohibiting enrolment included: systemic hormone replacement therapy or SERMS (selective estrogen receptor modulators). Intermittent use of vaginal estrogens was permitted.
All study participants were randomised. Study medication began within 5 working days of randomisation. Clinical evaluation, routine blood work, toxicity evaluation and mammography (annually only) occurred six monthly in year one and annually thereafter. Serious toxicities and deaths were reported within 24 hours. Treatment was discontinued for: serious intercurrent illness, unacceptable toxicity, disease recurrence and patient request. SF-36 and Menqol questionnaires were completed by a subset of patients at each visit. Fasting lipid samples and bone mineral density evaluations occurred in sub-sets of participants on the bone and lipid companion studies. Recurrence of disease was defined histologically, cytologically or by clinical and/or radiologic suspicion and dated by the first time of detection. Management of recurrent cancer was at the discretion of the treating physician. Patients developing any second malignancy other than non-melanoma skin cancer or carcinoma in-situ of the cervix had to discontinue study therapy.
Interim analyses and other decisions regarding early termination of the study were referred to an independent Data and Safety Monitoring Committee (DSMC) consisting of clinicians, patient representatives and statisticians who reviewed the study twice a year.
Disease free survival, defined as the time from randomization to the time of recurrence of the primary disease (in the breast, chest wall, nodal or metastatic sites) or development of contralateral breast cancer, was the primary endpoint of the study. The sample size calculation assumed a 4 year disease free survival of 88% for patients on the placebo arm and a hazard ratio of 1.28, which represents 2.5% improvement in 4 year disease free survival from 88% to 90.5%. […]

[1] = among 207 events at first analysis

N#Cc1ccc(C(c2ccc(C#N)cc2)n2cncn2)cc1 [letrozole]
hazard ratio of patients on placebo versus those on letrozole for OS (95% confidence interval from 0.85 to 2.17, stratified two sided log-rank p 0.20): 1.36
hazard ratio of placebo to letrozole for DFS (95% confidence interval from 1.33 to 2.34, stratified two sided log-rank p 0.000077): 1.76
effect on breast cancer recurrence and new primary tumors (in words) (after five years of treatment with tamoxifen): markedly reduced breast cancer recurrance and new primary tumors
women who developed both contralateral breast cancer and metastatic disease [1]: 2 women
women who developed contralateral breast cancer only [1]: 14 women
women with metastatic disease recurrence only [1]: 59 women
patients coming off study because of progressive disease (at the time of the first analysis): 44 patients
patients coming off study because of toxicity (female, human, in vivo): 115 patients
toxicity profile (in words) (in vivo): very favorable toxicity profile
4 year disease free survival (DFS) (letrozole 2.5 mg once daily by mouth after five years of adjuvant tamoxifen, first interim analysis, 95% confidence interval from 90% to 95%): 93%
4 year overall survival (OS) (letrozole 2.5 mg once daily, first interim analysis, 95% confidence interval from 94% to 98%): 96%
patients who had died at the time of data cut-off (of 72 deaths in total, 2593 randomized to letrozole): 30 patients
